pEC50: −log10 of the molar value. Where two headings read alike, the source gives them in different places.
Experiments:
Assay type in all cases: cell-based
[1] = test system: HRVc15 replicon; assay: HRVc15 EC50 (replicon luciferase in H1-HeLa cells); conditions: 48 hrs
Description: (§1) First, HRV replicon RNA is prepared. 5 ug of DNA Template (HRVc15 or HRVc25) is linearized with 2 μL of MluI enzyme in NEB buffer-3 in a final volume of 25 μL for 3 hours at 37° C. Following incubation, linearized DNA is purified on a PCR purification column and the following in vitro transcription is performed using the following conditions: 10 μL of RiboMAX Express T7 2× buffer, 1-8 μL of linear DNA template (1 μg), 0-7 μL nuclease free water, 2 μL enzyme mix T7 express. The final volume of 20 μL is mixed and incubated at 37° C. for 30 min. Following incubation, 1 μL of RQ1 RNase free DNase is added and the mixture is incubated at 37° C. for 15 min. The resulting RNA is then purified with the MegaClear Kit (Gibco Life Technologies cat #11835-030) and is eluted two times with 50 μL of elution buffer at 95° C. […] Replicon activity is then measured by a Renilla-Glo Luciferase Assay system. Prior to signal quantification, plates are removed from incubators and are allowed to equilibrate to 25° C. after 50 uL is removed from each well. […] Plates are then incubated for 20 min at 25° C. under gentle agitation and luciferase signal are determined with a 0.1 second detection setting using an EnVision luciferase quantification reader.

[2] = test system: HRVc25 replicon; assay: HRVc25 EC50 (replicon luciferase in H1-HeLa cells); conditions: 48 hrs
Description: as §1

[3] = test system: RSV A strain A2; assay: RSV HAE EC50 (intracellular RSV RNA by real-time PCR in HAE cells); conditions: human respiratory syncytial virus, 72 h, read-out: RSV HAE EC50
Description: HAE cells are cultured at the air-liquid interface and have an apical side that is exposed to the air and a basal side that is in contact with the medium. Prior to experimentation, HAE were removed from their agar-based shipping packaging and were acclimated to 37° C./5% CO2 overnight in 1 ml of HAE Assay medium (AIR-100-MM, Mattek Corp). HAE were prepared for infection by washing the apical surface twice with 400 μL of PBS (either utilizing direct pipetting methods or by running each transwell through a trough containing PBS) to remove the mucus layer. Apical chambers were drained of PBS and tapped gently onto absorbent material to remove as much PBS as possible. After washing, the cells were transferred to fresh HAE maintenance media containing 4-fold serially diluted compound, delivered to the basal side of the cell monolayer, and apically infected with 100 μL of a 1:600 dilution of RSV A strain A2 1000× stock (ABI, Columbia, MD, cat #10-124-000) in HAE assay medium for 3 hours at 37° C. in 5% CO2. The virus inoculum was removed and the apical surface of the cells was washed 3 times with PBS using either method previously described. The cells were then cultured in the presence of compound for 3 days at 37° C. Following the incubation, total RNA was extracted from the HAE cells using a MagMAX-96 Viral RNA isolation kit (Applied Biosystems, Foster City, CA, Cat #AM1836) and intracellular RSV RNA was quantified by real-time PCR. Approximately 25 ng of purified RNA was added to a PCR reaction mixture that contained 0.9 μM RSV N Forward and RSV N Reverse primers, 0.2 μM RSV N Probe and 1×Taqman RNA-to-Ct 1-Step Kit (Applied Biosystems, Foster City, CA, Cat #4392938). RNA levels were normalized using a Tagman GAPDH control primer set (Applied Biosystems, Foster City, CA, Cat #402869). Real-Time PCR Primers and Probe Used in the RSV A2 HAE Antiviral Assay: […]

[4] = test system: HRV10; assay: HRV10 HELA EC50
[5] = test system: HRV99; assay: HRV99 EC50
[6] = test system: HRV14; assay: HRV14 HELA EC50 (cytopathic effect in H1-HeLa cells); conditions: 96 h, read-out: HRV14 HELA EC50
Description: H1-HeLa cells, cultured in complete RPMI 1640 medium containing 10% heat-inactivated FBS and 1% Penicillin/Streptomycin, were seeded in 96 well plates at 5000 cells/well one day prior to compound dosing and infection. The antiviral activity of each compound was measured in triplicate. Compounds were added directly to the cell cultures in serial 3-fold dilutions using the HP300 digital dispenser (Hewlett Packard, Palo Alto, CA) immediately prior to infection. The plates were transferred to BSL-2 containment and 100 μL of 1/4000 dilution of HRV14 virus stock was added to each well containing cells and serially diluted compounds. Each plate included 6 wells of infected untreated cells and 6 wells of cells containing 5 μM Rupintrivir that served as 0% and 100% virus inhibition control, respectively. Following the infection, test plates were incubated for 96 h in a tissue culture incubator set to 37° C./5% CO2. Following incubation, the H1-HeLa cells were removed from incubation and allowed to equilibrate to 25° C. Cell viability was determined by removing 100 μL of culture medium and adding 100 μL of Cell-Titer Glo viability reagent. The mixtures were incubated on a shaker for 10 minutes at 25° C., and the luminescence signal was quantified on an Envision luminescence plate reader.

## C[C@H](N[P@](=O)(OC[C@@]1(C#N)O[C@@H](c2ccc3c(N)ncnn23)[C@H](O)[C@@H]1O)Oc1ccccc1)C(=O)OC1CCCCC1 (single isomer, unassigned) [Example 6]
[1]
  pEC50: 8.05
[2]
  pEC50: 8.15
[3]; HAE
  pEC50: 7.70

## C[C@H](NP(=O)(OC[C@@]1(C#N)O[C@@H](c2ccc3c(N)ncnn23)[C@H](O)[C@@H]1O)Oc1ccccc1)C(=O)OC1CCCCC1 (stereo partly drawn) [Example 4, (2S)-cyclohexyl 2-(((((2R,3S,4R,5S)-5-(4-aminopyrrolo[2,1-f][1,2,4]triazin-7-yl)-2-cyano-3,4-dihydroxytetrahydrofuran-2-yl)methoxy)(phenoxy)phosphoryl)amino)propanoate]
[4]
  pEC50: 6.84
[5]
  pEC50: 5.96
[6]
  pEC50: 6.35

## CCC(CC)COC(=O)[C@@H](C)NP(=O)(OC[C@@]1(C#N)O[C@@H](c2ccc3c(N)ncnn23)[C@H](O)[C@@H]1O)Oc1ccccc1 (stereo partly drawn) [Example 82, (2R)-2-ethylbutyl 2-(((((2R,3S,4R,5S)-5-(4-aminopyrrolo[2,1-f][1,2,4]triazin-7-yl)-2-cyano-3,4-dihydroxytetrahydrofuran-2-yl)methoxy)(phenoxy)phosphoryl)amino)propanoate]
[4]
  pEC50: 5.57
[5]
  pEC50: 4.71
[6]
  pEC50: 5.04

## C[C@H](NP(=O)(OC[C@@]1(C#N)O[C@@H](c2ccc3c(N)ncnn23)[C@H](O)[C@@H]1O)Oc1ccccc1)C(=O)OCC(C)(C)C (stereo partly drawn) [Example 92, (2S)-neopentyl 2-(((((2R,3S,4R,5S)-5-(4-aminopyrrolo[2,1-f][1,2,4]triazin-7-yl)-2-cyano-3,4-dihydroxytetrahydrofuran-2-yl)methoxy)(phenoxy)phosphoryl)amino)propanoate]
[4]
  pEC50: 7.09
[5]
  pEC50: 6.19
[6]
  pEC50: 6.62

## CCCCCCCCCCCCCCCCCCOC[C@H](COP(=O)(O)OC[C@@]1(C#N)O[C@@H](c2ccc3c(N)ncnn23)[C@H](O)[C@@H]1O)OCc1ccccc1 [Example 96, ((2R,3S,4R,5S)-5-(4-aminopyrrolo[2,1-f][1,2,4]triazin-7-yl)-2-cyano-3,4-dihydroxytetrahydrofuran-2-yl)methyl ((R)-2-(benzyloxy)-3-(octadecyloxy)propyl) hydrogen phosphate]
[4]
  pEC50: 5.63
[5]
  pEC50: 4.19
[3]; HAE cells, RSV A2, 3 days
  pEC50: 4.65
[6]; H1-HeLa cells
  pEC50: 4.92

## CCC(CC)OC(=O)[C@H](C)NP(=O)(OC[C@@]1(C#N)O[C@@H](c2ccc3c(N)ncnn23)[C@H](O)[C@@H]1O)Oc1ccccc1 (stereo partly drawn) [Example 101, (2S)-pentan-3-yl 2-(((((2R,3S,4R,5S)-5-(4-aminopyrrolo[2,1-f][1,2,4]triazin-7-yl)-2-cyano-3,4-dihydroxytetrahydrofuran-2-yl)methoxy)(phenoxy)phosphoryl)amino)propanoate]
[4]
  pEC50: 5.88
[5]
  pEC50: 5.13
[6]
  pEC50: 5.46
